According to article PMC5295395, “Inhibition of PlexA1-mediated brain tumor growth and tumor-associated angiogenesis using a transmembrane domain targeting peptide” (Oncotarget, 2016):

What was measured:
[1] = system: tumor-associated blood vessels (CD31); test: CD31 immunostaining of U118MG-Luc xenograft tumor sections; format: in vivo, mouse; settings: vs control; p = 0.0436, Mann Whitney
Description: To address the biological consequences of MTP-PlexA1-mediated inhibition of PlexA1 we used the U118MG-Luc glioma cell line genetically engineered to express the luciferase reporter gene. […] Cells were then grafted subcutaneously and tumor growth was monitored every 5 days for a total period of 20 days. […] The quantitative analysis of the cumulated luminescent signal acquired all along the protocol confirmed the strong reduction of tumor development translating into a marked 75% reduction of the averaged luminescent signal at the end point (Figure 6C). […] In order to clarify the mechanism by which MTP-PlexA1 is exerting tumor growth inhibition we collected tumors and analyzed them histologically.
(B) Representative photographs illustrating the kinetic of tumor growth over 20 days in the two experimental groups. […] (D) Waterfall plot of best response representing the percent change in tumor volume of individual treated animals (grey bars, n = 10) compared to the average tumor volume increased determined in the control group (dark bars, n = 10). […] (F) Representative microphotographs and related quantification of PH3 positive cells in tumor slices (G) Representative microphotographs and related quantification of CD31 positive regions in tumor slices (% CD31 per μm² of tumors).

p-Akt/Akt = test: western blot of Akt phosphorylation in U373MG cells; format: cell-based, human; settings: Sema3A 100 ng/ml + MTP-PlexA1 10^−7 M
Description: (C) Rac-1 activation assay in resting condition and after Sema3A-induced Rac-1 activation in U373 MG cells. (D) Western blot analysis of phosphorylated Akt, total Akt and tubulin in U373MG cells treated with the vehicle (LDS 72 μM), Sema3A (100 ng/ml) or Sema3A + MTP-PlexA1 (10^−7 M). The lower panel is showing the quantification of the p-Akt/Akt ratio in the different conditions. (E) MTP-PlexA1 decreases VEGFR-2 phosphorylation induced by VEGF (100 ng/ml) in HUVEC cells. […]
in 20 mM sodium acetate (pH 4.5) at a flow rate of 5 μl/ min 10–7 M of MTP-PlexA1 or Vehicle (LDS, 72 µM) during until desired surface densities, measured in response 1 h. Stimulation was done with 100ng/ml Semaphorin 3A units, were reached. […] First antibodies (Rabbit anti-phospho-the elution buffer containing detergent removed non- akt, Rabbit anti-akt, Cell Signaling #4060 and #9272 biotinylated peptides rendering the chip ready for analysis respectively) and mouse anti-tubulin α (Cell Signaling with monomeric biot-MTP-PlexA1. Blank surfaces were #2144) were incubated overnight at 4°C (+ anti-NRP1, used for background corrections. Injections of 30 µl anti-PlexA4 Abcam). […] Images of the immuno-blots cells per well in a 6-well plate and serum starved overnight. were acquired and analyzed thanks to the GENE GNOME Before protein extraction, the cells were treated either with apparatus (Syngene Bio Imaging, UK).

VEGFR-2 phosphorylation = test: ELISA of VEGFR-2 phosphorylation in HUVEC cells; format: cell-based, human; settings: VEGF 100 ng/ml
Description: (C) Rac-1 activation assay in resting condition and after Sema3A-induced Rac-1 activation in U373 MG cells. (D) Western blot analysis of phosphorylated Akt, total Akt and tubulin in U373MG cells treated with the vehicle (LDS 72 μM), Sema3A (100 ng/ml) or Sema3A + MTP-PlexA1 (10^−7 M). The lower panel is showing the quantification of the p-Akt/Akt ratio in the different conditions. (E) MTP-PlexA1 decreases VEGFR-2 phosphorylation induced by VEGF (100 ng/ml) in HUVEC cells.
PlexA1 is a Rho-GTPase activating protein. Consistently, it has been shown that in response to Sema3A, the Rho-GTPase Rac1 is activated and sequestered at the plasma membrane. […] Moreover, it has been shown that Sema3A inhibits Akt phosphorylation through binding of Rnd1 to PlexA1. […] From these experiments we concluded that MTP-PlexA1 is able to antagonize major signaling pathways of PlexA1 receptor.

TLPAIVGIGGGGGLLLLVIVAVLIAYKRK [MTP-PlexA1, synthetic transmembrane peptide mimicking the TMD of PlexA1]
reduction of tumor-associated blood vessel density (CD31) [1]: 11.4% | effect on Sema3A-induced inhibition of Akt phosphorylation (p-Akt/Akt): blocked | change of VEGF-induced phosphorylation of VEGFR-2 (VEGFR-2 phosphorylation): −26%
